Reference: patent US4223036A, “1-(1,3-Dioxolan-2-ylmethyl)-1H-1,2,4-triazoles” (Janssen Pharmaceutica N.V., priority 1979, dated 1980)

Key:
Candida albicans [1] = assay: Activity against vaginal candidosis in rats (lowest oral dose active at the 14th day after infection); format: in vivo, Female Wistar rats; set-up: lowest effective oral dose (vaginal candidosis in rats): unit not given here; conditions: oral once a day for two days, active at 14th day after infection; for lowest effective oral dose (vaginal candidosis in rats): Table I
Method: Experiment A: Activity of Compounds (I) Against Vaginal Candidosis in Rats
Female Wistar rats of ±100 g body weight were used. They were ovariectomized and hysterectomized and after three weeks of recovery, 100 μg of oestradiol undecylate in sesame oil was given subcutaneously once a week for 3 consecutive weeks. The thus induced pseudooestrus was controlled by microscopic examination of vaginal smears. Food and water were left available ad libitum.
The rats were infected intravaginally with 8.10^5 cells of Candida albicans, grown on Sabouraud broth for 48 hours at 37° C. and diluted with saline. The date of infection varied from day +25 to day +32 after surgical intervention, depending on the appearance of signs of induced pseudo-oestrus.
The drugs under investigation were administered orally once a day for two days starting from the day of infection. For each experiment there were placebo treated controls. The results were assessed by taking vaginal smears with sterile swabs on several days after infection. The swabs were put into Sabouraud broth in petri-dishes and incubated for 48 hours a 37° C. If no growth of Candida albicans occured, i.e., when the animals were negative at the end of the experiment, this was due to drug administration because it never happened in placebo treated controls.
The Tables I, II and III below give the lowest oral dose of the drug under investigation which was found active at the 14th day after infection.

Candida albicans [2] = assay: Activity against crop candidosis in turkeys (dose whereby crops of 50% of animals were completely negative); format: in vivo; conditions: medicated feed for 13 consecutive days
Method: Experiment B: Activity of Compounds (I) Against Crop Candidosis in Turkeys
Turkeys of 14 days old were infected in the crop with 4.10^6 Candida albicans cells, grown on Sabouraud broth for 48 hours at 37° C. and diluted with saline. The volume of the inoculum was 1 ml. The drug under investigation were premixed in 500 mg of lacton and thereafter admixed in 1000 g of meal without any additives. The concentration of the drug under investigation in the meal was expressed in mg/kg.
The animals were given the medicated feed for 13 consecutive days starting on the day of infection. At the end of the experiment all animals were sacrificed. At autopsy the crops were removed, emptied and grinded in an ultra-turrax mixer in 15 ml of sterile saline. Colony counting was done on Sabouraud agar and the results given in the Tables I, II and III represent the ED50, i.e., the dose of the drug whereby the crops of 50% of the animals were completely negative for Candida albicans.

SMILES | lowest effective oral dose (vaginal candidosis in rats) (Candida albicans [1]) | ED50 (crop candidosis in turkeys) (Candida albicans [2]; Table I) | minimal effective dose (Candida albicans [1]; Candida albicans, 336 h, Table II) | ED50 (crop candidosis in turkeys) (Candida albicans [2]; Table II)
CCNc1ccc(OC[C@H]2CO[C@](Cn3ccnc3)(c3ccc(Cl)cc3Cl)O2)cc1 (relative stereo) [NHCH2CH3, cis-4-[2-(2,4-dichlorophenyl)-2-(1H-imidazol-1-ylmethyl)-1,3-dioxolan-4-ylmethoxy]-N-ethylbenzenamine] | 2.5 | 31 mg/kg of feed | – | –
CNC(=S)N1CCN(c2ccc(OC[C@H]3CO[C@](Cn4ccnc4)(c4ccc(Cl)cc4Cl)O3)cc2)CC1 (relative stereo) | 2.5 | 125 mg/kg of feed | – | –
Clc1ccc([C@@]2(Cn3ccnc3)OC[C@H](COc3ccc(N4CCN(Cc5ccccc5)CC4)cc3)O2)c(Cl)c1 (relative stereo) [drawing 46] | 2.5 | 31 mg/kg of feed | – | –
CCNC(=O)N1CCN(c2ccc(OC[C@H]3CO[C@](Cn4ccnc4)(c4ccc(Cl)cc4Cl)O3)cc2)CC1 (relative stereo) | 10 | 125 mg/kg of feed | – | –
COC(=O)Nc1ccc(OC[C@H]2CO[C@](Cn3ccnc3)(c3ccc(Cl)cc3Cl)O2)cc1 (relative stereo) [NHCOOCH3, cis-methyl {4-[2-(2,4-dichlorophenyl)-2-(1H-imidazol-1-ylmethyl-1,3-dioxolan-4-ylmethoxy]phenyl}-carbamate nitrate] | 5 | 31 mg/kg of feed | – | –
CCOC(=O)Nc1ccc(OC[C@H]2CO[C@](Cn3ccnc3)(c3ccc(Cl)cc3Cl)O2)cc1 (relative stereo) [NHCOOC2 H5, cis-ethyl {4-[2-(2,4-dichlorophenyl)-2-(1H-imidazol-1-ylmethyl)-1,3-dioxolan-4-ylmethoxy]phenyl}carbamate] | 5 | 16 mg/kg of feed | – | –
Clc1ccc([C@@]2(Cn3ccnc3)OC[C@H](COc3ccc(N4CCN(Cc5ccccc5)CC4)cc3)O2)c(Cl)c1 (relative stereo) [drawing 50] | 1.25 | 16 mg/kg of feed | – | –
NC(=O)N1CCN(c2ccc(OC[C@H]3CO[C@](Cn4ccnc4)(c4ccc(Cl)cc4Cl)O3)cc2)CC1 (relative stereo) | 5 | 125 mg/kg of feed | – | –
S=C=Nc1ccc(OC[C@H]2CO[C@](Cn3ccnc3)(c3ccc(Cl)cc3Cl)O2)cc1 (relative stereo) [NCS, cis-1-[2-(2,4-dichlorophenyl)-4-(4-isothiocyanatophenoxymethyl)-1,3-dioxolan-2-ylmethyl]-1H-imidazole] | 5 | 125 mg/kg of feed | – | –
CCN1CCN(c2ccc(OC[C@H]3CO[C@](Cn4ccnc4)(c4ccc(Cl)cc4Cl)O3)cc2)CC1 (relative stereo) [drawing 37] | 1.25 | 31 mg/kg of feed | – | –
CCNC(=O)Nc1ccc(OC[C@H]2CO[C@](Cn3ccnc3)(c3ccc(Cl)cc3Cl)O2)cc1 (relative stereo) [NHCONHC2 H5, cis-N-{4-[2-(2,4-dichlorophenyl)-2-(1H-imidazol-1-ylmethyl)-1,3-dioxolan-4-ylmethoxy]phenyl}-N'-ethylurea] | 10 | 125 mg/kg of feed | – | –
O=CNc1ccc(OC[C@H]2CO[C@](Cn3ccnc3)(c3ccc(Cl)cc3Cl)O2)cc1 (relative stereo) [NHCHO, cis-N-{4-[2-(2,4-dichlorophenyl)-2-(1H-imidazol-1-yl-methyl)-1,3-dioxolan-4-ylmethoxy]phenyl}formamide] | 2.5 | 31 mg/kg of feed | – | –
CN1CCN(c2ccc(OC[C@H]3CO[C@](Cn4cncn4)(c4ccc(Cl)cc4Cl)O3)cc2)CC1 (relative stereo) [CH3] | – | – | 1.25 mg/kg | 16 mg/kg of feed
